Reference: PubChem BioAssay (NCI)
Values joined by “and” are separate entries in the source; they are usually repeats but may differ in a detail not shown here. Identical values can stand only once.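 Following 48 hours of exposure in 96-well plates, responses at five concentrations were used to interpolate endpoints linearly. GI50 is the concentration that inhibits growth by half. TGI marks complete inhibition of growth.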

How the values were obtained:
Assay in all cases: NCI-60 cell line screen, 48 h
UACC-257 melanoma = tested on: UACC-257 melanoma
HL-60(TB) leukemia = tested on: HL-60(TB) leukemia
CAKI-1 renal = tested on: CAKI-1 renal
MALME-3M melanoma = tested on: MALME-3M melanoma
A498 renal = tested on: A498 renal
NCI-H23 lung = tested on: NCI-H23 lung
UO-31 renal = tested on: UO-31 renal
IGROV1 ovarian = tested on: IGROV1 ovarian
K-562 leukemia = tested on: K-562 leukemia
SN12C renal = tested on: SN12C renal

## Cc1ccccc1NC(=O)c1[nH]c(=S)nc(N)c1-c1ccccc1C
UACC-257 melanoma
  TGI: > 100 µM
HL-60(TB) leukemia
  TGI: > 100 µM
CAKI-1 renal
  TGI: > 100 µM
MALME-3M melanoma
  TGI: > 100 µM
A498 renal
  TGI: > 100 µM
NCI-H23 lung
  TGI: > 100 µM
UO-31 renal
  TGI: > 100 µM
IGROV1 ovarian
  TGI: > 100 µM
K-562 leukemia
  TGI: > 100 µM
SN12C renal
  TGI: > 100 µM

## Cc1cc(Cl)ccc1N1C(=O)C(=O)C(c2nc3ccccc3s2)C(=O)C1=O
UACC-257 melanoma
  TGI: > 100 µM
HL-60(TB) leukemia
  TGI: > 100 µM
CAKI-1 renal
  TGI: > 100 µM
MALME-3M melanoma
  TGI: > 100 µM
A498 renal
  TGI: > 100 µM
NCI-H23 lung
  TGI: > 100 µM
UO-31 renal
  TGI: > 100 µM
IGROV1 ovarian
  TGI: > 100 µM
K-562 leukemia
  TGI: > 100 µM
SN12C renal
  TGI: > 100 µM

## COc1ccc(-n2c(N)c(C(=O)NCCN3CCOCC3)c3nc4ccccc4nc32)cc1OC
UACC-257 melanoma
  GI50: 34.4 µM
  TGI: > 100 µM
HL-60(TB) leukemia
  GI50: 21.8 µM
  TGI: > 100 µM
CAKI-1 renal
  GI50: 4.62 µM
  TGI: > 100 µM
MALME-3M melanoma
  GI50: 6.32 µM
  TGI: 71.8 µM
A498 renal
  GI50: 7.98 µM
  TGI: > 100 µM
NCI-H23 lung
  GI50: 38.3 µM
  TGI: > 100 µM
UO-31 renal
  GI50: 3.53 µM
  TGI: 62.1 µM
IGROV1 ovarian
  GI50: 4.92 µM
  TGI: 67.4 µM
K-562 leukemia
  GI50: 2.96 µM
  TGI: > 100 µM
SN12C renal
  GI50: 5.29 µM
  TGI: > 100 µM

## Cc1ccc(S(=O)(=O)N2CCCCC2CCO)cc1 (stereo not given)
UACC-257 melanoma
  TGI: > 100 µM
HL-60(TB) leukemia
  TGI: > 100 µM
CAKI-1 renal
  TGI: > 100 µM
MALME-3M melanoma
  TGI: > 100 µM
A498 renal
  TGI: > 100 µM
NCI-H23 lung
  TGI: > 100 µM
UO-31 renal
  TGI: > 100 µM
IGROV1 ovarian
  TGI: > 100 µM
K-562 leukemia
  TGI: > 100 µM
SN12C renal
  TGI: > 100 µM

## Cn1c(=O)c(F)c(Nc2ccc(I)cc2F)c2c(=O)n(C[C@@H](O)CO)cnc21
UACC-257 melanoma
  GI50: < 0.01 µM and 0.00301 µM
  TGI: < 0.01 µM and 0.0262 µM
HL-60(TB) leukemia
  GI50: < 0.01 µM and 0.00141 µM
  TGI: 23.1 µM
CAKI-1 renal
  GI50: 0.649 µM and 0.139 µM
  TGI: > 90 µM
MALME-3M melanoma
  GI50: < 0.01 µM and 0.00177 µM
  TGI: < 0.01 µM
A498 renal
  GI50: < 0.01 µM and 0.0103 µM
  TGI: 0.0305 µM and 0.0752 µM
NCI-H23 lung
  GI50: 0.0183 µM and 0.0231 µM
  TGI: > 46.4 µM
UO-31 renal
  GI50: 0.304 µM and 0.0568 µM
  TGI: 15.4 µM and > 4.09 µM
IGROV1 ovarian
  GI50: 0.106 µM and 0.0179 µM
  TGI: 20.8 µM
K-562 leukemia
  GI50: 0.172 µM and 0.112 µM
  TGI: > 84 µM
SN12C renal
  GI50: 3.91 µM and 0.487 µM
  TGI: > 100 µM

## CCN(CCCl)CCNc1c2ccccc2nc2ccc(OC)cc12
UACC-257 melanoma
  TGI: 3.73 µM
HL-60(TB) leukemia
  TGI: 3.91 µM
CAKI-1 renal
  TGI: 4.23 µM
MALME-3M melanoma
  TGI: 2.31 µM
A498 renal
  TGI: 6.64 µM
NCI-H23 lung
  TGI: 2.12 µM
UO-31 renal
  TGI: 3.98 µM
IGROV1 ovarian
  TGI: 2.86 µM
K-562 leukemia
  TGI: 2.51 µM
SN12C renal
  TGI: 2.85 µM

## O=C(OCCOCCOC(=O)c1c[nH]cc1-c1ccccc1)c1c[nH]cc1-c1ccccc1
UACC-257 melanoma
  TGI: 33.1 µM
HL-60(TB) leukemia
  TGI: 55.1 µM
CAKI-1 renal
  TGI: 83.1 µM
MALME-3M melanoma
  TGI: 55.2 µM
A498 renal
  TGI: 53.1 µM
NCI-H23 lung
  TGI: 33.7 µM
UO-31 renal
  TGI: 31.4 µM
IGROV1 ovarian
  TGI: 42.5 µM
K-562 leukemia
  TGI: > 100 µM
SN12C renal
  TGI: 42.1 µM

## O=C1NC(=NCc2ccccn2)S/C1=C\c1ccc2ncccc2c1
UACC-257 melanoma
  GI50: > 12.7 µM
  TGI: > 25 µM
HL-60(TB) leukemia
  GI50: 6.56 µM
  TGI: > 25 µM
CAKI-1 renal
  GI50: 6.62 µM
  TGI: > 18.9 µM
MALME-3M melanoma
  GI50: > 13.1 µM
  TGI: > 23.3 µM
A498 renal
  GI50: 3.95 µM
  TGI: > 18.8 µM
NCI-H23 lung
  GI50: 12.1 µM
  TGI: > 25 µM
UO-31 renal
  GI50: 11.3 µM
  TGI: > 25 µM
IGROV1 ovarian
  GI50: 17.8 µM
  TGI: > 25 µM
K-562 leukemia
  GI50: 8.29 µM
  TGI: > 25 µM
SN12C renal
  GI50: 10.8 µM
  TGI: > 25 µM

## CSC(=S)N/N=C(\C)c1ccccn1
UACC-257 melanoma
  GI50: 0.159 µM
  TGI: 1.55 µM
HL-60(TB) leukemia
  GI50: < 0.0453 µM
  TGI: 0.18 µM
CAKI-1 renal
  GI50: 0.267 µM
  TGI: 7.25 µM
MALME-3M melanoma
  GI50: 0.177 µM
  TGI: 9.1 µM
A498 renal
  GI50: 0.458 µM
  TGI: 6.33 µM
NCI-H23 lung
  GI50: 0.119 µM
  TGI: 26.5 µM
UO-31 renal
  GI50: 0.154 µM
  TGI: 11.8 µM
IGROV1 ovarian
  GI50: 0.171 µM
  TGI: 17.4 µM
K-562 leukemia
  GI50: < 0.01 µM
  TGI: 23.3 µM
SN12C renal
  GI50: 0.454 µM
  TGI: 37.5 µM

## O=C(Nc1ccccc1Cl)c1ccc(NC2=C(Cl)C(=O)N(Cc3ccccc3)C2=O)cc1
UACC-257 melanoma
  GI50: 38.8 µM
  TGI: > 100 µM
HL-60(TB) leukemia
  GI50: 22.5 µM
  TGI: 50.6 µM
CAKI-1 renal
  GI50: 43.5 µM
  TGI: > 100 µM
MALME-3M melanoma
  GI50: 86.1 µM
  TGI: > 100 µM
A498 renal
  GI50: > 100 µM
  TGI: > 100 µM
NCI-H23 lung
  GI50: 19.2 µM
  TGI: 35.7 µM
UO-31 renal
  GI50: > 100 µM
  TGI: > 100 µM
IGROV1 ovarian
  GI50: 46.4 µM
  TGI: > 100 µM
K-562 leukemia
  GI50: 21.8 µM
  TGI: 49.3 µM
SN12C renal
  GI50: 27.8 µM
  TGI: 73.7 µM

## CCCCCCCCSC1=CC(=O)C(OC)=C(OC)C1=O
UACC-257 melanoma
  GI50: 1.67 µM
  TGI: 4.17 µM
HL-60(TB) leukemia
  GI50: 0.437 µM
  TGI: 21.4 µM
CAKI-1 renal
  GI50: 6.11 µM
  TGI: 54.6 µM
MALME-3M melanoma
  GI50: 1.96 µM
  TGI: 4.44 µM
A498 renal
  GI50: 6.13 µM
  TGI: 20.4 µM
NCI-H23 lung
  GI50: 3.36 µM
  TGI: 16.2 µM
UO-31 renal
  GI50: 1.77 µM
  TGI: 3.31 µM
IGROV1 ovarian
  GI50: 5.66 µM
  TGI: 23.4 µM
K-562 leukemia
  GI50: 2.73 µM
  TGI: > 100 µM
SN12C renal
  GI50: 5.21 µM
  TGI: 18.4 µM

## O=C1c2cccc3cccc(c23)C(=O)N1CCCCOc1ccc(-c2nc3ccc(N4CCOCC4)cc3[nH]2)cc1
UACC-257 melanoma
  GI50: 5.06 µM
  TGI: 27.9 µM
HL-60(TB) leukemia
  GI50: 2.29 µM
  TGI: 4.55 µM
CAKI-1 renal
  GI50: 11.6 µM
  TGI: 27 µM
MALME-3M melanoma
  GI50: 0.558 µM
  TGI: 3.21 µM
A498 renal
  GI50: 3.38 µM
  TGI: 20.2 µM
NCI-H23 lung
  GI50: 6.7 µM
  TGI: 23.5 µM
UO-31 renal
  GI50: 10.8 µM
  TGI: > 35.2 µM
IGROV1 ovarian
  GI50: 11.1 µM
  TGI: 66.9 µM
K-562 leukemia
  GI50: 3.25 µM
  TGI: 9.47 µM
SN12C renal
  GI50: 5.56 µM
  TGI: 12.1 µM

## COc1cc(/C=C/C(=O)c2ccc(Nc3nc(Nc4ccc(F)cc4)nc(Nc4ccc(F)cc4)n3)cc2)cc(OC)c1OC
UACC-257 melanoma
  GI50: 7.11 µM
  TGI: 61.1 µM
HL-60(TB) leukemia
  GI50: 1 µM
  TGI: > 100 µM
CAKI-1 renal
  GI50: > 100 µM
  TGI: > 100 µM
MALME-3M melanoma
  GI50: 17.1 µM
  TGI: 82.4 µM
A498 renal
  GI50: 15.7 µM
  TGI: 49 µM
NCI-H23 lung
  GI50: 4.86 µM
  TGI: > 100 µM
UO-31 renal
  GI50: 3.75 µM
  TGI: > 100 µM
IGROV1 ovarian
  GI50: 3.59 µM
  TGI: > 100 µM
K-562 leukemia
  GI50: 3 µM
  TGI: > 100 µM
SN12C renal
  GI50: 33.6 µM
  TGI: > 100 µM

## CC(=O)Nc1ccc(C(=O)N[C@@H]2C(=O)N3[C@@H]2SC(C)(C)[C@@H]3C(=O)O)cn1
UACC-257 melanoma
  TGI: > 100 µM
HL-60(TB) leukemia
  TGI: > 100 µM
CAKI-1 renal
  TGI: > 100 µM
MALME-3M melanoma
  TGI: > 100 µM
A498 renal
  TGI: > 100 µM
NCI-H23 lung
  TGI: > 100 µM
UO-31 renal
  TGI: > 100 µM
IGROV1 ovarian
  TGI: > 100 µM
K-562 leukemia
  TGI: > 100 µM
SN12C renal
  TGI: > 100 µM

## NCCOc1ccccn1
UACC-257 melanoma
  TGI: > 100 µM
HL-60(TB) leukemia
  TGI: > 100 µM
CAKI-1 renal
  TGI: > 100 µM
MALME-3M melanoma
  TGI: > 100 µM
A498 renal
  TGI: > 100 µM
NCI-H23 lung
  TGI: > 100 µM
UO-31 renal
  TGI: > 100 µM
IGROV1 ovarian
  TGI: > 100 µM
K-562 leukemia
  TGI: > 100 µM
SN12C renal
  TGI: > 100 µM
